The record followed here is US20100093648A1, “TREATMENT OF MACULAR DEGENERATION-RELATED DISORDERS” (priority 2008, published 2010).

The data set has as its system APOE4 HF-C mice. The data set can be described thus: Electroretinogram (ERG) in aged APOE4 mice on high fat/cholesterol diet (murine AMD model). Format: in vivo, mouse. The note with it: aged male APOE4 mice, high cholesterol diet 8 weeks, scyllo-inositol 10 mg/ml in drinking water ad libitum. The source says: The ocular pathologies of AMD may be recapitulated in a murine model by applying three physiologically relevant risk factors: specific APOE genotype (APOE4), advanced age and high fat/cholesterol-rich (HF-C) diet. These mice develop sub-retinal pigment epithelium (RPE) deposits (basal deposits), RPE atrophy and choroidal neovascularization in a temporal, non-fully penetrant manner that is analogous to human AMD progression [Malek, G., et al., (2005), Proc Natl Acad Sci USA 102, 11900-5]. An electrophysiological phenotype is associated with this pathology. […] The ability of scyllo-inositol (AZD-103/ELN005) to prevent retina/RPE damage, the buildup of basal deposits and attenuation of the ERG was evaluated.
Aged male APOE4 mice housed conventionally, under ambient conditions maintained on water ad libitum and normal mouse chow (normal diet or ND), were assigned to three treatment groups. This assignment was random, although the ages of the animals were balanced across the groups. One group was maintained on the normal diet. The second group was switched to a high fat cholesterol (HFC) diet (35% fat, 20% protein, 45% carbohydrates, 1.25% cholesterol, 0.5% sodium cholate) for 8 weeks. The third group received scyllo-inositol (AZD-103/ELN005) ad libitum (dissolved in drinking water at 10 mg/ml) for 7 days. They were then switched to the HF-C diet for 8 weeks, during which time they continued to receive scyllo-inositol (AZD-103/ELN005) ad libitum. […] ERG tracings were recorded using a platinum iridium wire loop electrode placed in contact with the eye along with a drop of 2.5% hydroxypropyl methylcellulose. […] The a-wave amplitude was measured from baseline to the a-wave trough, and the b-wave amplitude was measured from the a-wave trough to the b-wave peak. • 4. […] Quantitation of photoreceptors. […] The thickness of outer nuclear layer and the linear density of photoreceptor will be calculated. […]
After 8 weeks, animals were assessed by electroretinogram. […] The electrophysiological response to these flashes was recorded by an electrode touching the surface of the eye. […]

As to “scyllo-inositol [scyllo-inositol (AZD-103/ELN005)]”, the “a-wave amplitude (ERG)” value is on record as “consistent” and the “retinal function as demonstrated by ERGs” value is “prevented the retinal defect that was caused by high cholesterol diet”. Besides, the “scotopic b-wave amplitude (ERG)” value (all flash intensities, compared with normal diet controls) is “virtually indistinguishable from the normal diet control animals”.
